Source: patent US12059429B2, “Hornerin: a novel non-VEGF mediated angiogenic protein expressed in both human and mouse angiogenic endothelial cells and human pancreatic cancer cells” (University of Virginia Patent Foundation, priority 2018, dated 2024)

Tests used:
[1] = tested on: hornerin; assay: Immunoblot of hornerin in HUVECs treated with growth factors; assay type: cell-based, human; conditions: 24 hours treatment; growth factors at published B-max concentrations, EGF at increasing concentrations
Description: HUVECs were cultured in 10 cm dishes for 24 hours prior to a change to media containing VEGF (at B-max concentration), TCM, or VC. After 24 hours treatment, the cells were washed with DPBST two times and lysed with radioimmunoprecipitation assay (RIPA) buffer (Thermo Scientific). Lysate protein concentrations were measured by the bicinchoninic acid assay (Pierce, Waltham, MA, USA) and equivalent amounts of protein were loaded into precast 4-15% tris-glycine eXtended (TGX) polyacrylamide gels (Bio-Rad, Hercules, CA, USA). The proteins were resolved by electrophoresis and transferred to nitrocellulose membranes using the iBlot system (Invitrogen, Carlsbad, CA, USA). The membranes were then washed in Tris-buffered saline+1% Tween-20 (TBST), blocked for 30 minutes in TBST+2% milk solution, and incubated overnight at 4° C. with primary antibodies anti-hornerin (Abcam, Cambridge, UK, ab78909; (1:1000)) and anti-HSP90 (Cell Signaling Technology, Danvers, MA, USA, 4877; (1:1000)). The following day the membranes were washed and subsequently incubated with the secondary antibodies anti-goat HRP (R&D Systems, Minneapolis, MN, USA, HAF109; 1:5000) and anti-rabbit HRP (GE Healthcare, NA934V; 1:5000) for 45 minutes at RT. […]
Major constituents of TCM were determined using a Human Angiogenesis Antibody Array (Affymetrix, Santa Clara, CA, USA) per manufacturer's instructions. […]

[2] = tested on: L3.6pl PDAC cells; assay: Subcutaneous L3.6pl PDAC xenograft tumor volume; assay type: in vivo, mouse
Description: A tumor sample size of four was determined by power analysis based on prior tumor xenograft studies. For our 80% power analysis, the difference between means was 200 mm^3, standard deviation was 100 mm^3, and P-value<0.05 (P<0.05). Tumors were measured at least twice weekly until their volume was >1000 mm^3, at which point animals were euthanized. Tumor size data were collected from each tumor, with the exception of one tumor in the combination treatment experiment that was identified with 90% confidence via Grubb's Outlier Test. The following number of mice in each treatment cohort was evaluated for tumor outgrowth: (Scr siRNA/ctrl., N=15; Hrnr siRNA/ctrl., N=14; Scr siRNA/AV-951, N=8; Hrnr siRNA/AV-951, N=8).
For tumor implantation, L3.6pl cells were grown under normal culture conditions for 72 hours prior to being trypsinized and enumerated. The cells were suspended in aliquots of 500,000 cells/50 μL Hanks Balanced Salt Solution (HBSS; Corning, Manassas, VA, USA) and 50 μL of Matrigel (BD Biosciences, San Jose, CA, USA) was added to each aliquot of cells prior to implantation. The cell-Matrigel slurry was injected subcutaneously into nu/nu mice on the flanks or orthotopically into the pancreas (Seaman et al., 2011). The injection site for subcutaneous tumors was monitored daily for growth and tumor volume was calculated form caliper measurements using the formula (width^2×length)/2.
The VEGFR inhibitor AV-951 (Selleck Chemicals, Houston, TX, USA) was suspended in 0.5% methocel+0.5% Tween-20 in HBSS to increase viscosity and 50 μL of 1.0 mg/kg AV-951 or VC solution was administered once daily by oral gavage (22-gauge gavage needle (Kent Scientific, Torrington, CT, USA) connected to a 1 mL syringe). […] To prepare Hrnr siRNA and Silencer Select Negative Control #1 Scr siRNA (Invitrogen; catalog number 4390844) for injection, 10 μg of hornerin or control siRNA were combined with in vivo-jetPEI transfection reagent (Polyplus, France) in solution with 5% glucose per Polyplus instructions (total volume 50 μL). After a 30 minutes incubation, the siRNA solutions were injected slowly into the center of the tumor. A second independent hornerin knockdown experiment was conducted using a pooled set of three unique mouse Hrnr siRNA duplexes (5′-[…]-3′ (SEQ ID NO: 50); 5 ‘-[…]-3’ (SEQ ID NO: 51); 5 ‘-[…]-3’ (SEQ ID NO: 52)) and Scr siRNA (Origene, Rockville, MD, USA). The reagent preparation and injection protocol were similar to that described above.

[3] = tested on: tumor vessels; assay: Tumor vessel parameters in L3.6pl tumor sections (CD34, ACTA2, RAVE analysis); assay type: in vivo, mouse; conditions: four-group combination experiment, vs control
Description: Following completion of the treatment schedule, the mice were killed, cardiac perfused, and the tumors were excised and fixed in formalin overnight. The tumors were paraffin embedded and cut into 5 (thin) or 50 μm (thick) sections. Tumor vessel parameters were evaluated in the following number of tumors for each treatment cohort: (Scr siRNA/ctrl., N=10; Hrnr siRNA/ctrl., N=10; Scr siRNA/AV-951, N=4; Hrnr siRNA/AV-951, N=4).
Tumor sections were deparaffinized, rehydrated, heated in antigen retrieval solution (Vector), blocked for 30 minutes in blocking buffer, and incubated with anti-CD34 antibody (Abcam, ab8158, clone MEC14.7; 1:100) in blocking buffer overnight at 4° C. The sections were then incubated with goat anti-rat FITC secondary antibody (Abcam, ab6840; 1:100) in blocking buffer prior to mounting with Prolong Gold Antifade reagent (Invitrogen). Anti-actin, α-smooth muscle Cy3 antibody (Sigma, C6198, clone 1A4; 1:200) was added to the primary antibody solution if assaying for alpha-smooth muscle actin. To compare hornerin expression in vessels and tumor tissue treated with Hrnr siRNA and Scr siRNA, thin paraffin sections were deparaffinized and stained with anti-CD34 and anti-hornerin antibodies described. Images were collected using a Nikon TE 2000-E2 microscope (Nikon Instruments) equipped with a Melles Griot Argon Laser System (Melles Griot, Carlsbad, CA, USA) and a Nikon D-Eclipse C1 confocal attachment and analyzed by Measurement Tool in Image J. To measure the relative hornerin expression in tumor vessels, three vessel segments per image were isolated and their mean intensity and area were measured and recorded. A weighted mean intensity was calculated to correct for differences in selected area. To measure the relative hornerin expression in tumor tissue, the mean intensity from three square sections (75×75 pixel) of tumor tissue per image was measured and recorded.
(§1) Vessel parameters were measured using RAVE software (Seaman et al., 2011). For detection of proliferation and apoptosis, the sections were incubated with the primary antibodies anti-Ki67 (Abcam, ab15580; 1:200) or anti-cleaved caspase 3 (Cell Signaling, 9661; 1:200), respectively, overnight at 4° C. followed by incubation with anti-rabbit AF594 (Abcam, 150080; 1:200).

[4] = tested on: tumor vascularity; assay: DCE-MRI and Ktrans measurement of L3.6pl tumors; assay type: in vivo, mouse; conditions: AV-951 1.0 mg/kg once daily oral gavage; AV-951 only vs control; combination vs AV-951
Description: To assess the in vivo function of tumor vascularity, DCE-MRI was performed on a 7.0 T Clinscan small animal imaging system (Bruker, Ettlingen, Germany) using a 30 mm inner-diameter birdcage radiofrequency coil. Mice (N=7) were imaged prior to treating tumors with Hrnr and Scr siRNA and again 6 days after treatment. Mice treated with the VEGFR inhibitor AV-951 (N=5) were image pre-siRNA treatment and 6 days posttreatment. Mice were anesthetized with 1.25% isoflurane anesthesia, which was maintained during imaging. Respiration and ECG were monitored during imaging using an MRI-compatible system (SA Instruments, Stony Brook, NY, USA). An indwelling tail vein catheter was established for administration of the gadolinium contrast agent Gd-DTPA, which is required in DCE imaging. Mice were placed supine in the imaging system, and body temperature was maintained at 36° C.±1° C. using circulating, temperature controlled water. Tumors were localized using a spin-echo imaging sequence, and an imaging plane that transected both tumors was chosen for DCE imaging.
A dual-Gd-bolus DCE-MRI acquisition strategy (Christian et al., 2004) was employed, which uses a low dose of contrast agent to accurately acquire the undistorted Gd concentration vs. time curve in the blood pool and a higher dose of contrast agent to acquire the Gd concentration vs. time curve in the tumor with high signal-to-noise ratio, since Gd-DTPA is known to have signal saturation effects at high doses in the blood pool (Christian et al., 2004). […]

[5] = tested on: L3.6pl tumors; assay: Ki67 and cleaved caspase 3 immunofluorescence in tumor sections; assay type: in vivo, mouse; conditions: day 15 tumor sections
Description: as §1

[6] = tested on: tumor vasculature; assay: Photoacoustic microscopy of tumor vasculature; assay type: in vivo, mouse; conditions: day 12
Source text: Using an established PAM system (Wang & Hu, 2012; Ning et al., 2015a; Ning et al., 2015b), the tumor vasculature was characterized in vivo. Two laser wavelengths, 532 and 559 nm, were used to simultaneously quantify microvascular diameter, oxygen saturation, and blood flow at the same spatial scale (Ning et al., 2015a). The applied optical energies were 100 and 75 nJ, which are below the maximum permissible exposure energy. Throughout the experiment, mice were maintained under anesthesia with 1.5% vaporized isoflurane and the body temperature was kept at 37° C. All experimental procedures were carried out in conformity with the laboratory animal protocol approved by the Animal Care and Use Committee at the University of Virginia.

Q: Which “hornerin expression in HUVECs” value [1] does the source give for “bFGF: growth factor found in TCM, added to HUVECs at published B-max concentration” here?
A: Its value is “might stimulate hornerin expression”.

Q: How did the “tumor volume decrease compared to control-treated animals” value ([2]; day 5 post implantation, 1.0 mg/kg AV-951 once daily oral gavage) turn out when `COc1cc2nccc(Oc3ccc(NC(=O)Nc4cc(C)on4)c(Cl)c3)c2cc1OC` [AV-951, 1-[2-chloro-4-(6,7-dimethoxyquinolin-4-yl)oxyphenyl]-3-(5-methyl-1,2-oxazol-3-yl)urea, reference compound] was run?
A: Its value is 2.3 fold.

Q: And the “reduction in tumor volume (discussion summary)” value ([2]; monotherapy or combined therapies)?
A: The value was “two-fold”.

Q: And the “number of vessels per field” value [3]?
A: Its value is “fewer vessels were observed”.

Q: What about the vessel morphology [3] of the same molecule?
A: The vessel morphology was “morphologically similar to control vessels”.

Q: And the “Ktrans values (in words)” value [4]?
A: Its value is “decrease”.

Q: What about the “cleaved caspase 3 levels in tumors relative to control” value [5] of the same molecule?
A: Its value is “two-fold increase”.

Q: And the “tumor blood hemoglobin levels” value [6]?
A: Its value is “remained unchanged”.

Q: And the “tumor blood oxygen saturation compared to control” value [6]?
A: The value was 1.5 fold.
